In assay [1] the target is T1, t-PA (tissue-type plasminogen activator) (Homo sapiens, UniProt P00750). The assay is described as follows: Km determination of amidolytic chromogenic substrates with t-PA. Format: biochemical. The settings on record: 3 units per hole, 100 mM Tris pH 8.0/100 mM NaCl/0.01% Tween 80, 37° C., Lineweaver-Burk plot. The protocol: (§1) In a 96-hole plate, respectively 90 μl of 100 mM Tris pH 8.0/100 mM NaCl/0.01% "Tween" 80 and 50 μl of the corresponding chromogenic substrate (all from Kabi Vitrum, Stockholm, Sweden) in the final concentrations of 0.03/0.06/0.1/0.3/0.6 and 1 mM are incubated with 10 μl (3 units per hole) of the corresponding plasminogen activator at 37° C., and the thus-released p-nitroaniline is determined photometrically at 405 nm at various points in time between 0-7 hours. The resultant data are evaluated with the aid of a Lineweaver-Burk plot, and the Km value is determined (Segel, I. H., Enzyme Kinetics, John Wiley and Sons, New York). The following chromogenic substrates were utilized:

In assay [2] the target is T2, Urokinase (Homo sapiens, UniProt P00749). Description: Km determination of amidolytic chromogenic substrates with urokinase. It counts as biochemical. Conditions: 3 units per hole, 100 mM Tris pH 8.0/100 mM NaCl/0.01% Tween 80, 37° C., Lineweaver-Burk plot. The protocol:
as §1

Assay [3] concerns the target T1, t-PA (tissue-type plasminogen activator). The settings on record: literature value (Friedberger 1982), read-out: Km (value in parentheses, from the literature); cited from earlier work.
For assay [4], the target named is T2, Urokinase. Conditions: literature value (Friedberger 1982), read-out: Km (value in parentheses, from the literature); cited from earlier work.

Like-named read-outs stand apart in the source and are kept apart here. Where a SMILES comes first, the peptide text is derived from it. [ ]: non-standard residue; d: D form. The star is where a group is joined. pNA = O=[N+]([O-])c1ccc(N*)cc1; pGlu = O=C1CC[C@@H](C(=O)O)N1

One may read the Km as the concentration of substrate that gives half-maximal velocity.

T1 sequence (P00750 36-562): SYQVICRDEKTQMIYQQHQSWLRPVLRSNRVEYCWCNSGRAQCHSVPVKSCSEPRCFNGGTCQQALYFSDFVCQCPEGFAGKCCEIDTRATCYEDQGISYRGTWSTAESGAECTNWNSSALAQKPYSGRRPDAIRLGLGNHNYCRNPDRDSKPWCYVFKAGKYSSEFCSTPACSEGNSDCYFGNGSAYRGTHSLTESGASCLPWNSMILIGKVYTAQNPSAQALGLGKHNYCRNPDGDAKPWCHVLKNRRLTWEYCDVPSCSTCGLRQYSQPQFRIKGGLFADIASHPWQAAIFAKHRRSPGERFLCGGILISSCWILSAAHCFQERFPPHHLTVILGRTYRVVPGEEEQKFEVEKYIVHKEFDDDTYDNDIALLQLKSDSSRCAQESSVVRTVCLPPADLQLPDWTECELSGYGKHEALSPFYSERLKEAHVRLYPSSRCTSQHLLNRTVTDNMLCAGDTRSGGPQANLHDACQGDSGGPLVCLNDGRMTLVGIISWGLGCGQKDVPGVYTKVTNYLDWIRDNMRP

For `CC[C@@H](C)[C@@H](N)C(=O)N1CCC[C@H]1C(=O)N[C@@H](CCCNC(=N)N)C(=O)Nc1ccc([N+](=O)[O-])cc1` [S-2288, H-D-Ile-Pro-Arg-pNA] (H-[dI]-Pro-Arg-pNA), the Michaelis constant (Km) in assay [1] was 700 µM; in assay [2] (read-out: Km), 400 µM; in assay [3] it was 1000 µM.
Take `N=C(N)NCCC[C@H](NC(=O)CNC(=O)[C@@H]1CCC(=O)N1)C(=O)Nc1ccc([N+](=O)[O-])cc1` [S-2444, <Glu-Gly-Arg-pNA] ([pGlu]-Gly-Arg-pNA): the Michaelis constant (Km) in assay [2] is 100 µM; in assay [4], 90 µM.
